Measurements taken from patent publication US11439622B2 (OXFORD UNIVERSITY INNOVATION LIMITED, priority 2015, dated 2022).

How the values were obtained:
Assay type in all cases: biochemical
[1] = biological target: VIM-2 (Veronese metallo-β-lactamase-2) (Escherichia coli, UniProt Q5U7L7); test: Enzyme inhibition assay, VIM-2; settings: read-out: pIC50 VIM-2 (converted)
Description: (§1) The biological activity of the compounds of the present invention was tested using standard assay protocols.^7 The following representative enzymes NDM-1 (New Delhi metallo-β-lactamase-1), IMP-1 (Imipenemase-1) and VIM-2 (Veronese metallo-β-lactamase-2) were selected from different clinically relevant B1 metallo-β-lactamases.

IMP-1 (Imipenemase-1) = IMP-1 (Imipenemase-1) (Serratia marcescens, UniProt P52699); test: Enzyme inhibition assay, IMP-1; settings: read-out: pIC50 IMP-1 (converted)
IMP-1 (Imipenemase-1), sequence (P52699 19-246, looked up, species assumed): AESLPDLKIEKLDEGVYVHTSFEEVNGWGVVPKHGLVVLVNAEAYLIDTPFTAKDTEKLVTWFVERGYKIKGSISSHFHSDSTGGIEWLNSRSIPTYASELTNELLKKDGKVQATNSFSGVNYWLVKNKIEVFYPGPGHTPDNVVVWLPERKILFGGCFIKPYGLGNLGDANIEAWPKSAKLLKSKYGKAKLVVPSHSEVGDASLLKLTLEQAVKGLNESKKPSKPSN
Description: as §1

[2] = biological target: NDM-1 (New Delhi metallo-β-lactamase-1) (Klebsiella pneumoniae, UniProt C7C422); test: Enzyme inhibition assay, NDM-1; settings: read-out: pIC50 NDM-1 (converted)
NDM-1 (New Delhi metallo-β-lactamase-1), sequence (C7C422 29-270, looked up, species assumed): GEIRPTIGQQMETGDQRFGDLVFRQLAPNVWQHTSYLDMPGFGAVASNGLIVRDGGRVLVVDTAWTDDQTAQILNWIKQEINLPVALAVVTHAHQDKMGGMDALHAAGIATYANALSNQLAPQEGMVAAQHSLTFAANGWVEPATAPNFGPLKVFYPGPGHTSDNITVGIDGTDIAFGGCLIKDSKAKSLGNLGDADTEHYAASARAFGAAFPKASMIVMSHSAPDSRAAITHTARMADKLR
Description: as §1

IC50 [1] [µM] | IC50 (IMP-1 (Imipenemase-1)) [µM] | IC50 [2] [µM] | SMILES
3.98 | > 100 | 0.631 | Cc1ccc2c(-c3ccc(C(N)=O)cc3)c(C(=O)O)[nH]c2c1 [Example 48, 3-(4-carbamoylphenyl)-6-methyl-1H-indole-2-carboxylic acid]
0.501 | 15.8 | 0.0316 | Cc1cccc2c(-c3ccc(F)cc3)c(C(=O)O)[nH]c12 [Example 49, 3-(4-fluorophenyl)-7-methyl-1H-indole-2-carboxylic acid]
1 | 25.1 | 0.251 | COc1cccc2c(-c3ccc(F)cc3)c(C(=O)O)[nH]c12 [Example 50, 3-(4-fluorophenyl)-7-methoxy-1H-indole-2-carboxylic acid]
0.316 | 0.316 | 0.02 | CCCc1cccc2c(-c3ccc(F)cc3)c(C(=O)O)[nH]c12 [Example 52, 3-(4-fluorophenyl)-7-propyl-1H-indole-2-carboxylic acid]
0.794 | 31.6 | 0.251 | O=C(O)c1[nH]c2c(Cl)cccc2c1-c1ccc(F)cc1 [Example 54, 7-chloro-3-(4-fluorophenyl)-1H-indole-2-carboxylic acid]
0.398 | 2 | 0.0251 | COc1ccc2c(-c3ccc(F)cc3)c(C(=O)O)[nH]c2c1C [Example 55, 3-(4-fluorophenyl)-6-methoxy-7-methyl-1H-indole-2-carboxylic acid]
0.398 | 7.94 | 0.0316 | Cc1ccc2c(-c3ccc(F)cc3)c(C(=O)O)[nH]c2c1C [Example 56, 3-(4-fluorophenyl)-6,7-dimethyl-1H-indole-2-carboxylic acid]
0.1 | 0.1 | 0.0794 | CC(C)(C)c1cccc2c(-c3ccc(F)cc3)c(C(=O)O)[nH]c12 [Example 57, 7-(tert-butyl)-3-(4-fluorophenyl)-1H-indole-2-carboxylic acid]
0.794 | 15.8 | 0.0316 | Cc1cc(F)cc2c(-c3ccc(F)cc3)c(C(=O)O)[nH]c12 [Example 58, 5-fluoro-3-(4-fluorophenyl)-7-methyl-1H-indole-2-carboxylic acid]
0.501 | 25.1 | 0.126 | Cc1cc(C)c2[nH]c(C(=O)O)c(-c3ccc(F)cc3)c2c1 [Example 59, 3-(4-fluorophenyl)-5,7-dimethyl-1H-indole-2-carboxylic acid]
0.631 | > 100 | 0.126 | COc1cc(C)c2[nH]c(C(=O)O)c(-c3ccc(F)cc3)c2c1 [Example 60, 3-(4-fluorophenyl)-5-methoxy-7-methyl-1H-indole-2-carboxylic acid]
0.316 | 1.26 | 0.0316 | COCCc1cccc2c(-c3ccc(F)cc3)c(C(=O)O)[nH]c12 [Example 61, 3-(4-fluorophenyl)-7-(2-methoxyethyl)-1H-indole-2-carboxylic acid]
0.158 | 0.316 | 0.00501 | O=C(O)c1[nH]c2c(CCOc3ccccc3)cccc2c1-c1ccc(F)cc1 [Example 62, 3-(4-fluorophenyl)-7-(2-phenoxyethyl)-1H-indole-2-carboxylic acid]
1 | > 100 | 0.316 | Cc1cccc2c(-c3ccccn3)c(C(=O)O)[nH]c12 [Example 63, 7-methyl-3-(pyridin-2-yl)-1H-indole-2-carboxylic acid]
0.501 | 1.58 | 0.0158 | Cc1c(Oc2ccccc2)ccc2c(-c3ccc(F)cc3)c(C(=O)O)[nH]c12 [Example 64, 3-(4-fluorophenyl)-7-methyl-6-phenoxy-1H-indole-2-carboxylic acid]
0.0126 | 0.0316 | 0.00158 | CC(C)c1cccc2c(-c3ccc(S(N)(=O)=O)cc3)c(C(=O)O)[nH]c12 [Example 65, 7-isopropyl-3-(4-sulfamoylphenyl)-1H-indole-2-carboxylic acid]
0.0316 | 0.0316 | 0.00501 | CC(C)c1cccc2c(-c3ccccc3)c(C(=O)O)[nH]c12 [Example 66, 7-isopropyl-3-phenyl-1H-indole-2-carboxylic acid]
0.02 | 0.0398 | 0.00251 | CC(C)c1cccc2c(-c3ccc(S(C)(=O)=O)cc3)c(C(=O)O)[nH]c12 [Example 67, 7-isopropyl-3-(4-(methylsulfonyl)phenyl)-1H-indole-2-carboxylic acid]
0.0316 | 0.0398 | 0.00631 | CC(C)c1cccc2c(-c3ccncc3)c(C(=O)O)[nH]c12 [Example 68, 7-isopropyl-3-(pyridin-4-yl)-1H-indole-2-carboxylic acid]

IC50 [1] [µM] | IC50 (IMP-1 (Imipenemase-1)) [µM] | IC50 [2] [µM] | SMILES
0.00794 | 0.0126 | 0.00251 | CC(C)c1cccc2c(-c3ccc(C(N)=O)cc3)c(C(=O)O)[nH]c12 [Example 69, 3-(4-carbamoylphenyl)-7-isopropyl-1H-indole-2-carboxylic acid]
0.0794 | 0.01 | 0.00251 | CC(C)c1cccc2c(-c3ccc(N4CCOCC4)cc3)c(C(=O)O)[nH]c12 [Example 70, 7-isopropyl-3-(4-morpholinophenyl)-1H-indole-2-carboxylic acid]
0.02 | 0.0398 | 0.00398 | CC(C)c1cccc2c(-c3ccc(Cl)cc3)c(C(=O)O)[nH]c12 [Example 71, 3-(4-chlorophenyl)-7-isopropyl-1H-indole-2-carboxylic acid]
0.0126 | 2.51 | 0.0501 | CC(C)c1cccc2c(-c3ccccc3Cl)c(C(=O)O)[nH]c12 [Example 72, 3-(2-chlorophenyl)-7-isopropyl-1H-indole-2-carboxylic acid]
0.0316 | 0.0316 | 0.000355 | CC(C)c1cccc2c(-c3ccc(S(=O)(=O)N(C)C)cc3)c(C(=O)O)[nH]c12 [Example 73]
0.0794 | 0.02 | 0.000562 | CC(C)c1cccc2c(-c3ccc(C(=O)N(C)C)cc3)c(C(=O)O)[nH]c12 [Example 74, 3-(4-(dimethylcarbamoyl)phenyl)-7-isopropyl-1H-indole-2-carboxylic acid]
0.01 | 0.0251 | 0.002 | CC(C)c1cccc2c(-c3ccc4[nH]ncc4c3)c(C(=O)O)[nH]c12 [Example 75, 3-(1H-indazol-5-yl)-7-isopropyl-1H-indole-2-carboxylic acid]
0.00631 | 12.6 | 0.2 | COc1cccc(-c2c(C(=O)O)[nH]c3c(C(C)C)cccc23)c1OC [Example 77, 3-(2,3-dimethoxyphenyl)-7-isopropyl-1H-indole-2-carboxylic acid]
0.00398 | 0.126 | 0.01 | CC(C)c1cccc2c(-c3cc(F)cc(F)c3)c(C(=O)O)[nH]c12 [Example 78, 3-(3,5-difluorophenyl)-7-isopropyl-1H-indole-2-carboxylic acid]
0.00398 | 0.0158 | 0.000501 | CC(C)c1cccc2c(-c3ccc(Cn4cccn4)cc3)c(C(=O)O)[nH]c12 [Example 79, 3-(4-((1H-pyrazol-1-yl)methyl)phenyl)-7-isopropyl-1H-indole-2-carboxylic acid]
0.01 | 0.02 | 0.000631 | CC(C)c1cccc2c(-c3ccc(Cn4cncn4)cc3)c(C(=O)O)[nH]c12 [Example 80, 3-(4-((1H-1,2,4-triazol-1-yl)methyl)phenyl)-7-isopropyl-1H-indole-2-carboxylic acid]
0.0631 | 0.1 | 0.00158 | CN(C)S(=O)(=O)c1ccc(-c2c(C(=O)O)[nH]c3c(CCOc4ccccc4)cccc23)cc1 [Example 81, 3-(4-(N,N-dimethylsulfamoyl)phenyl)-7-(2-phenoxyethyl)-1H-indole-2-carboxylic acid]
0.158 | 0.501 | 0.00398 | Cc1c(Oc2ccccc2)ccc2c(-c3ccc(S(=O)(=O)N(C)C)cc3)c(C(=O)O)[nH]c12 [Example 82, 3-(4-(N,N-dimethylsulfamoyl)phenyl)-7-methyl-6-phenoxy-1H-indole-2-carboxylic acid]
0.1 | 0.0631 | 0.00398 | CN(C)C(=O)c1ccc(-c2c(C(=O)O)[nH]c3c(CCOc4ccccc4)cccc23)cc1 [Example 83, 3-(4-(dimethylcarbamoyl)phenyl)-7-(2-phenoxyethyl)-1H-indole-2-carboxylic acid]
0.02 | 0.631 | 0.0372 | O=C(O)c1[nH]c2c(CCOc3ccccc3)cccc2c1-c1ccc(Cl)cc1 [Example 84, 3-(4-chlorophenyl)-7-(2-phenoxyethyl)-1H-indole-2-carboxylic acid]
0.158 | 1 | 0.1 | Cc1c(Oc2ccccc2)ccc2c(-c3ccc(Cl)cc3)c(C(=O)O)[nH]c12 [Example 85, 3-(4-chlorophenyl)-7-methyl-6-phenoxy-1H-indole-2-carboxylic acid]
0.575 | 0.646 | 0.00741 | Cc1c(Oc2ccccc2)ccc2c(-c3ccc(C(=O)N(C)C)cc3)c(C(=O)O)[nH]c12 [Example 86, 3-(4-(dimethylcarbamoyl)phenyl)-7-methyl-6-phenoxy-1H-indole-2-carboxylic acid]
0.0102 | 0.0537 | 0.00427 | CNS(=O)(=O)c1ccc(-c2c(C(=O)O)[nH]c3c(C(C)C)cccc23)cc1 [Example 88, 7-isopropyl-3-(4-(N-methylsulfamoyl)phenyl)-1H-indole-2-carboxylic acid]
